Where “and” joins values, the source holds several entries; their conditions need not be identical. Equal values may be shown once.
Tests used:
DLD1-TxR [1] = assay: MTT assay, reversal of PTX resistance in DLD1-TxR cells; assay type: cell-based, human; conditions: IC50 PTX alone / IC50 in combination
Experimental: (§1) The metabolic activity of viable cells was measured by MTT assay. Cells grown in 25 cm^2 tissue flasks were trypsinized, seeded into flat-bottomed 96-well tissue culture plates, and incubated overnight. Subsequently, the cells were treated with increasing concentrations of Si306, pro-Si306, and dasatinib (1–25 μM), as well as with Si221 and pro-Si221 (2.5–50 μM) for 72 h. In addition, the combined effects of Si306, pro-Si306, and pro-Si221with DOX as well as with PTX were studied in NCI-H460/R and DLD1-TxR cells, respectively. In simultaneous treatments that lasted 72 h in NCI-H460/R and DLD1-TxR cells, two concentrations of Si306, pro-Si306, and pro-Si221 (0.2 μM and 0.5 μM) were combined with increasing concentrations of DOX and PTX (0.1–2 μM). After treatment, MTT was added to each well at a final concentration of 0.2 mg/mL for 3 h. Then, formazan produced in cells with intact/viable mitochondria was dissolved in 200 μL of DMSO, and the absorbance was measured at 570 nm on a Multiskan Sky Microplate Spectrophotometer (ThermoFisher Scientific, United States). The IC50 value is defined as the concentration of a drug that decreases cell viability by 50% and was calculated by nonlinear regression analysis using GraphPad Prism 6.0 for Windows (La Jolla, CA, USA). Relative reversal was calculated as a relation between the IC50 values of DOX and PTX alone obtained in NCI-H460/R and DLD1-TxR cells, respectively and the IC50 values of DOX and PTX in combination with Pro-Si306 and Pro-Si221.

P-gp [2] = target: T1, P-gp (Homo sapiens, UniProt P08183); assay: Rho 123 accumulation assay (P-gp activity) in DLD1-TxR cells; conditions: DLD1-TxR
Experimental: (§3) The accumulation of fluorescent P-gp substrate Rho 123 was analyzed by flow cytometry. The intensity of fluorescence was proportional to Rho 123 accumulation in the cell. […] NCI-H460 and DLD1 cells were used as a positive control for Rho 123 accumulation. All cell lines were seeded in adherent 6-well plates and grown overnight. In simultaneous treatment that lasted 30 min, 5 μM Rho 123 was applied along with 10 μM of Si306, pro-Si306, Si221, pro-Si221, dasatinib, and Dex-VER. […] Samples were incubated for 30 min at 37 °C in 5% CO2. […] At the end of the accumulation period, the cells were trypsinized, pelleted by centrifugation, washed with PBS, and placed in ice-cold PBS. The samples were kept on ice in the dark until analysis on a CyFlow Space Partec flow cytometer (Sysmex Partec GmbH, Görlitz, Germany). The fluorescence of Rho 123 was detected on fluorescence channel 1 (FL1-H) at 530 nm. Three independent experiments were performed for each experimental setting. A minimum of 10,000 events was assayed for each sample, and the obtained results were analyzed using Summit Dako Software (ver. 4.3, Fort Collins, CO, USA).

DLD1 = assay: MTT cell viability assay, DLD1; assay type: cell-based; conditions: Homo sapiens, DLD-1, 72 h, read-out: Decrease in cell viability, IC50
Experimental: as §1

P-gp [3] = target: T1, P-gp; assay: P-gp ATPase activity assay (Pgp-Glo); assay type: biochemical; set-up: purchased Promega, Madison, WI, USA; conditions: 5 µM and 20 µM; verapamil positive control
Experimental: P-gp function depends on ATP hydrolysis energy, and compounds that interact with P-gp can stimulate or inhibit its ATPase activity. P-gp ATPase activity is usually stimulated by its substrates. The Pgp-GloTM assay system detects a compound’s effect on recombinant human P-gp in a cell membrane fraction. P-gp ATPase activity was measured using the luminescent Pgp-Glo^TM assay kit according to manufacturer’s instructions. Briefly, ATP was first incubated with P-gp; then, the P-gp ATPase reaction was stopped, and the remaining un-metabolized ATP was detected as a luciferase-generated luminescent signal. P-gp-dependent decreases in luminescence reflect ATP consumption by P-gp; thus, the greater the decrease in signal, the higher the P-gp activity. […] Na3VO4 is a noncompetitive inhibitor of P-gp ATPase activity. The difference in the luminescent signal, expressed as relative light units (RLU), between Na3VO4-treated samples and untreated samples represents the basal P-gp ATPase activity (ΔRLU basal). The difference in the luminescent signal between Na3VO4-treated samples and samples treated with the tested compounds represents P-gp ATPase activity in the presence of the tested compounds. […] The luminescence of samples treated with 5 μM and 20 μM of Si306, pro-Si306, and pro-Si221 was measured using a luminometer microplate reader (CHAMELEONTMV, Hidex, Turku, Finland).

NCI-H460/R [4] = assay: MTT cell viability assay, NCI-H460/R; assay type: cell-based, human
Experimental: as §1

[5] = test system: NCI-H460, NCI-H460/R, DLD1, DLD1-TxR; assay: MTT cell viability assay, two sensitive/MDR cancer cell line pairs; assay type: cell-based; conditions: Homo sapiens, summary over the four cell lines, 72 h
Experimental: as §1

P-gp [6] = target: T1, P-gp; assay: Rho 123 accumulation assay (P-gp activity) in NCI-H460/R cells; conditions: NCI-H460/R
Experimental: as §3

NCI-H460 = assay: MTT cell viability assay, NCI-H460; assay type: cell-based; conditions: Homo sapiens, 72 h, read-out: Decrease in cell viability, IC50
Experimental: as §1

P-gp expression [7] = assay: Flow cytometric analysis of P-gp expression in NCI-H460/R cells; assay type: cell-based, human; conditions: 48-h treatment, Si306, pro-Si306 5 and 10 µM, pro-Si221 1 and 2 µM, TQ 5 and 10 nM
Experimental: (§2) The P-gp expression level in NCI-H460/R and DLD1-TxR was measured by flow cytometry. […] After 48 h, cells were collected by trypsinization, washed in PBS, and then directly immuno stained by FITC-conjugated anti-P-gp antibody according to the manufacturer’s protocol.

P-gp expression [8] = assay: Flow cytometric analysis of P-gp expression in DLD1-TxR cells; assay type: cell-based, human; conditions: 48-h treatment, Si306, pro-Si306 5 and 10 µM, pro-Si221 1 and 2 µM, TQ 5 and 10 nM
Experimental: as §2

DLD1-TxR [9] = assay: MTT cell viability assay, DLD1-TxR; assay type: cell-based; conditions: Homo sapiens, DLD1-TxR (MDR), 72 h, read-out: Decrease in cell viability, IC50
Experimental: as §1

NCI-H460/R [10] = assay: MTT assay, reversal of DOX resistance in NCI-H460/R cells; assay type: cell-based, human; conditions: IC50 DOX alone / IC50 in combination
Experimental: as §1

[11] = 10 µM, 30-min treatment, compared with Dex-VER
[12] = IC50 for P-gp inhibition, Rho123 accumulation, 30 min

T1 sequence (P08183 whole entry): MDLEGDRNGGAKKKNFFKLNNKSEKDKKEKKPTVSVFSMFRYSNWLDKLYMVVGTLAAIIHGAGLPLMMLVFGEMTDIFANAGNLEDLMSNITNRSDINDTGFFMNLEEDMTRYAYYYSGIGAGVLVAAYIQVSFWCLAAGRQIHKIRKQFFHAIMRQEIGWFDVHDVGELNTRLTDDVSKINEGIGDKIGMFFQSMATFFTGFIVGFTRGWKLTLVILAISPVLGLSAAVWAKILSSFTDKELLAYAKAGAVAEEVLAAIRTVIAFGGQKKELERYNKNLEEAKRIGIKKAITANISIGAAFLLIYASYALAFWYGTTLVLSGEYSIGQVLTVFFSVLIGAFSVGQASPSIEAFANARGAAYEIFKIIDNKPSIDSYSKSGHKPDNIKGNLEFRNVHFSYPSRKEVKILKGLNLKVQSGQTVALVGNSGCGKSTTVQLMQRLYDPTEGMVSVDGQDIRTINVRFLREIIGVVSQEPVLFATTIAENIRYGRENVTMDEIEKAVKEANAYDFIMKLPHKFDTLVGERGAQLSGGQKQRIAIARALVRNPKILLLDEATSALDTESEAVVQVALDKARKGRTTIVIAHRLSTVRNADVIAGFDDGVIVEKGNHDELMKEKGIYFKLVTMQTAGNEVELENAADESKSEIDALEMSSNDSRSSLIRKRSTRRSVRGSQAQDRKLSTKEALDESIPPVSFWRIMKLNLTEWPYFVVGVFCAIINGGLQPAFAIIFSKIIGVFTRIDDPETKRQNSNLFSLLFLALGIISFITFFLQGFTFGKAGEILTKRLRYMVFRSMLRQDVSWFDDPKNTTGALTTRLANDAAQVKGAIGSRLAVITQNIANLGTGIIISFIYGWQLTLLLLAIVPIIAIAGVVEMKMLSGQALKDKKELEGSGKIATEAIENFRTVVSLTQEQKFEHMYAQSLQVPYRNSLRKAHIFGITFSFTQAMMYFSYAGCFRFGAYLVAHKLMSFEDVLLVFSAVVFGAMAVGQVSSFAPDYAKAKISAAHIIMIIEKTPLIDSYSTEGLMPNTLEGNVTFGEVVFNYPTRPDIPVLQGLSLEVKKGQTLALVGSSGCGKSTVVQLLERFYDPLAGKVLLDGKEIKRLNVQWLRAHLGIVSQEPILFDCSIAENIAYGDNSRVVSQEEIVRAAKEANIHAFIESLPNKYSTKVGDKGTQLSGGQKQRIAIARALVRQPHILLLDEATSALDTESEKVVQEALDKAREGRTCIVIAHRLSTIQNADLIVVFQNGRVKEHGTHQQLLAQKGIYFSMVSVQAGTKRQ

SMILES: CN1CCN(CCOC(=O)N(c2cccc(Br)c2)c2nc(SCCN3CCOCC3)nc3c2cnn3CC(Cl)c2ccccc2)CC1 (stereo not shown) [Pro-Si306]
- Relative Reversal of PTX resistance (DLD1-TxR [1]; SFK inhibitor 0.2 µM): 1.5
- Relative Reversal of PTX resistance (DLD1-TxR [1]; SFK inhibitor 0.5 µM): 2.5
- P-gp inhibition by Rho 123 intracellular accumulation (P-gp [2]; [11]): considerably more potent than that observed with Dex-VER
- kinetics of P-gp inhibition (Rho123 accumulation) (P-gp [2]; 24-, 48-, 96-, 168-h treatments, 10 µM pro-Si306, 1 and 2 µM pro-Si221, 5 and 10 nM TQ): reached stability after 96 h
- IC50 (P-gp [2]; [12]): 3000 nM and 2950 nM
- IC50 (DLD1): 2450 ± 346 nM
- effect on ATPase activity of P-gp (P-gp [3]): potential to inhibit the ATPase activity of P-gp
- IC50 (NCI-H460/R [4]; Homo sapiens, NCI-H460/R (MDR), MTT, 72 h, read-out: Decrease in cell viability, IC50): 897 ± 102 nM
- fold lower IC50 in MDR NCI-H460/R than in sensitive NCI-H460 cells (NCI-H460/R [4]; NCI-H460/R vs NCI-H460, MTT): more than 2 fold
- IC50 [5]: < 10000 nM
- IC50 (P-gp [6]; [12]): 6200 nM and 6170 nM
- P-gp inhibition by Rho 123 intracellular accumulation (P-gp [6]; [11]): considerably more potent than that observed with Dex-VER
- kinetics of P-gp inhibition (Rho123 accumulation) (P-gp [6]; 24-, 48-, 96-, 168-h treatments, 10 µM pro-Si306, pro-Si221, 5 and 10 nM TQ): reached stability after 96 h
- IC50 (NCI-H460): 2400 ± 376 nM
- effect on P-gp expression (protein level) (P-gp expression [7]): less pronounced effect on the increase in P-gp expression
- effect on P-gp expression (protein level) (P-gp expression [8]): tendency to decrease the P-gp expression
- IC50 (DLD1-TxR [9]): 1870 ± 128 nM
- Relative Reversal of DOX resistance (NCI-H460/R [10]; SFK inhibitor 0.2 µM): 3.2
- Relative Reversal of DOX resistance (NCI-H460/R [10]; SFK inhibitor 0.5 µM): 10.2

— publication PMC8582576, “New Therapeutic Strategy for Overcoming Multidrug Resistance in Cancer Cells with Pyrazolo[3,4-d]pyrimidine Tyrosine Kinase Inhibitors” (Cancers, 2021)
